This series has as its system HeLa cells. To be noted: human, 48 h, 1 micromolar.

Regarding `CC(=O)O[C@H]1C(=O)[C@@]2(C)[C@H]([C@H](OC(=O)c3ccccc3)[C@]3(O)C[C@H](OC(=O)[C@H](O)[C@@H](NC(=O)c4ccccc4)c4ccccc4)C(C)=C1C3(C)C)[C@]1(OC(C)=O)CO[C@@H]1C[C@@H]2O` [taxol], the HeLa cells killed is recorded as approximately 100%.
